Reference: patent US20080009418A1, “Selective Inhibitors” (Alchemia LTD., priority 2004, published 2008)

Tests used:
Human Melanocortin (MC3) = molecular target: T1, Human Melanocortin (MC3) (Homo sapiens, UniProt P41968); test: Radioligand binding, human melanocortin MC3 membranes, FlashPlate, [125I]-NDP-αMSH; conditions: compound at 10 μM, [125I]-NDP-αMSH
T1 construct: purchased Perkin Elmer Biosignal
Procedure, shortened: (§1)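 Cloned human receptor membranes were coated onto FlashPlate wells and incubated with radioligand and compound (added from a 0.5 mM DMSO daughter plate) for 1 hour at room temperature in the dark. Scintillation counting gave percent inhibition, with DMSO defining total and reference ligand defining non-specific binding.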

Human Melanocortin (MC4) = molecular target: T2, Human Melanocortin (MC4) (Homo sapiens, UniProt P32245); test: Radioligand binding, human melanocortin MC4 membranes, FlashPlate, [125I]-NDP-αMSH; conditions: compound at 10 μM, [125I]-NDP-αMSH
T2 construct: purchased Perkin Elmer Biosignal
Procedure, shortened: as §1

[1] = molecular target: T3, Human melanin-concentrating hormone (MCH1) (Homo sapiens, UniProt Q99705); test: Radioligand binding, human melanin-concentrating hormone MCH1 membranes, FlashPlate, [125I]-S36057; conditions: compound at 10 μM, [125I]-S36057
T3 construct: purchased Perkin Elmer Biosignal
Procedure, shortened: as §1

Human μ-opioid (MOP) = molecular target: T4, Human μ-opioid (MOP) (Homo sapiens, UniProt P35372); test: Radioligand binding, human μ-opioid (MOP) membranes, FlashPlate, [3H]-Naloxone; conditions: compound at 10 μM, [3H]-Naloxone
T4 construct: purchased Perkin Elmer Biosignal
Procedure, shortened: as §1

Human neurokinin (NK1) = molecular target: T5, Human neurokinin (NK1) (Homo sapiens, UniProt P25103); test: Radioligand binding, human neurokinin NK1 membranes, filtration, [125I]-Substance P; conditions: compound at 10 μM; [125I]-Substance P
T5 construct: purchased Perkin Elmer Biosignal
Procedure, shortened: (§2)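 Percent inhibition of radioligand binding measured on recombinant human membranes: NK1 with [125I]-Substance P, KOP with [3H]-Diprenorphine. Incubation 1 h at room temperature, then harvest onto 0.3% PEI-soaked filters, cold Tris-HCl pH 7.4 washes and scintillation counting; non-specific binding from reference ligand wells.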

Human melanocortin (MC5) = molecular target: T6, Human melanocortin (MC5) (Homo sapiens, UniProt P33032); test: Radioligand binding, human melanocortin MC5 membranes, FlashPlate, [125I]-NDP-αMSH; conditions: compound at 10 μM, [125I]-NDP-αMSH
T6 construct: purchased Perkin Elmer Biosignal
Procedure, shortened: as §1

Human opioid (ORL1) = molecular target: T7, Human opioid (ORL1) (Homo sapiens, UniProt P41146); test: Radioligand binding, human opioid ORL1 membranes, FlashPlate, [125I]-Nociceptin; conditions: compound at 10 μM, [125I]-Nociceptin
T7 construct: purchased Perkin Elmer Biosignal
Procedure, shortened: as §1

Human κ-Opioid (KOP) = molecular target: T8, Human κ-Opioid (KOP) (Homo sapiens, UniProt P41145); test: Radioligand binding, human κ-opioid (KOP) membranes, filtration, [3H]-Diprenorphine; conditions: compound at 10 μM; [3H]-Diprenorphine
T8 construct: purchased Perkin Elmer Biosignal
Procedure, shortened: as §2

Mouse urotensin (mUR2) = molecular target: T9, Mouse urotensin (mUR2) (Mus musculus, UniProt Q8VIH9); test: Radioligand binding, mouse urotensin mUR2 membranes, FlashPlate, [125I]-Urotensin II; conditions: compound at 10 μM; [125I]-Urotensin II
T9 construct: purchased Perkin Elmer Biosignal
T9 sequence (Q8VIH9 1-385): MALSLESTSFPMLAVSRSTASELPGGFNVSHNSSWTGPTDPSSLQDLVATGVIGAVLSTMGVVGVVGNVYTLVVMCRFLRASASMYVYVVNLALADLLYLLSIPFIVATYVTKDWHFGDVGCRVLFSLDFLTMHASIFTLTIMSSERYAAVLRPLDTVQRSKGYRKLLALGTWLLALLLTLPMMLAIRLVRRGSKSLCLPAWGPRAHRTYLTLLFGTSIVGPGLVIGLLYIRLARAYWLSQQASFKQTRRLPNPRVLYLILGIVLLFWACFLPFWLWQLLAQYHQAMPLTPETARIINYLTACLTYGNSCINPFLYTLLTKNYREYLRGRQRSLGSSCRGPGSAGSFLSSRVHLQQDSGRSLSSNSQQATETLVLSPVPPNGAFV
Procedure, shortened: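 Cloned mouse urotensin (mUR2) receptor membranes from Perkin Elmer Biosignal were immobilized in FlashPlate microplates using a proprietary coating. Each well got 19.5 μl buffer, then 0.5 μl of DMSO, reference ligand, or compound. Adding 5 μl of [125I]-Urotensin II, diluted to 5× final concentration in binding buffer, started binding. Plates were sealed with TopSeal-A and incubated 1 hour at room temperature in the dark. Wells were counted for 30 seconds each on a TopCount after a 60-second delay, and percentage inhibition was calculated.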

Human δ-opioid (DOP) = molecular target: T10, Human δ-opioid (DOP) (Homo sapiens, UniProt P41143); test: Radioligand binding, human δ-opioid (DOP) membranes, FlashPlate, [3H]-Bremazocine; conditions: compound at 10 μM; [3H]-Bremazocine
T10 construct: purchased Perkin Elmer Biosignal
Procedure, shortened: as §1

[2] = molecular target: T11, Human neuropeptide Y (NPY-Y1) (Homo sapiens, UniProt P25929); test: Radioligand binding, human neuropeptide Y NPY-Y1 membranes, FlashPlate, [125I]-PYY; conditions: compound at 10 μM, [125I]-PYY
T11 construct: purchased Perkin Elmer Biosignal
T11 sequence (P25929 1-384): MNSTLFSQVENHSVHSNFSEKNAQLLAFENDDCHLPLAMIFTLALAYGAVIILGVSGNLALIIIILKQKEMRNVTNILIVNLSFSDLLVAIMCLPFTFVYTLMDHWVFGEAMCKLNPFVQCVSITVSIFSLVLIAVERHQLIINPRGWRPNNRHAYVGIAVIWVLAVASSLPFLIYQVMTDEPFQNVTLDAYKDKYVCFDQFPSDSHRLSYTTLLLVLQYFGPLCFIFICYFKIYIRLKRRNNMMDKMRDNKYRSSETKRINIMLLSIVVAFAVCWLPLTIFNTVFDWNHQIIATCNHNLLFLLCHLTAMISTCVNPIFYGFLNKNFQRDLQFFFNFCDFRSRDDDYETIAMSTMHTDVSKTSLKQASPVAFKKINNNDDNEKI
Procedure, shortened: as §1

T7 sequence (P41146 whole entry): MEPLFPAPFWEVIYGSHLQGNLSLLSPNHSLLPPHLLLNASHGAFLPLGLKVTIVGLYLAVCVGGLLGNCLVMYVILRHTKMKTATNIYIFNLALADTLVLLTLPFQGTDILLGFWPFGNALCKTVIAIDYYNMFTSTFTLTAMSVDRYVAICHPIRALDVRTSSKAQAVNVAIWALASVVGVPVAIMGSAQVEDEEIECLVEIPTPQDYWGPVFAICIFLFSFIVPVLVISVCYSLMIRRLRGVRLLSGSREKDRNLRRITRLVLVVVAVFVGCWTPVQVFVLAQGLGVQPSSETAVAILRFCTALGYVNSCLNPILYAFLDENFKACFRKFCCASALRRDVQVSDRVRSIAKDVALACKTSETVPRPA
T1 sequence (P41968 whole entry): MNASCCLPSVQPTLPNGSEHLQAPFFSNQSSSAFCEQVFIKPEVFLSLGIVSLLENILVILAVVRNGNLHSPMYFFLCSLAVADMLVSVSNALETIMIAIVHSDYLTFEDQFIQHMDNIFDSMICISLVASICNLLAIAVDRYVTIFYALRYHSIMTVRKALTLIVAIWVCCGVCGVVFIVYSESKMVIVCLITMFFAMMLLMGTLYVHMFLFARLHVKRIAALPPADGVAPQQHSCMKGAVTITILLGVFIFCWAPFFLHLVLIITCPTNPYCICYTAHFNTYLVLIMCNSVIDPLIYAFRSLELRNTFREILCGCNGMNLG
T8 sequence (P41145 whole entry): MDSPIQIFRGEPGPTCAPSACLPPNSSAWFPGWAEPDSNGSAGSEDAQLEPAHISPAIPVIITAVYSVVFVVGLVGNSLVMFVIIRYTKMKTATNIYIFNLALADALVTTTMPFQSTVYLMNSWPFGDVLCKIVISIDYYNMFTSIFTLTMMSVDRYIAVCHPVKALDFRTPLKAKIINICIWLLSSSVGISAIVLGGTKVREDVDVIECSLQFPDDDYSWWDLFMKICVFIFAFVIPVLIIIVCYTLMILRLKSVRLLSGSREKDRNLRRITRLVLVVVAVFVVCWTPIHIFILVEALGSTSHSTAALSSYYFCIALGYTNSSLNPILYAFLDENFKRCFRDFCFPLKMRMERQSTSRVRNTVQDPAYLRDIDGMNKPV
T2 sequence (P32245 whole entry): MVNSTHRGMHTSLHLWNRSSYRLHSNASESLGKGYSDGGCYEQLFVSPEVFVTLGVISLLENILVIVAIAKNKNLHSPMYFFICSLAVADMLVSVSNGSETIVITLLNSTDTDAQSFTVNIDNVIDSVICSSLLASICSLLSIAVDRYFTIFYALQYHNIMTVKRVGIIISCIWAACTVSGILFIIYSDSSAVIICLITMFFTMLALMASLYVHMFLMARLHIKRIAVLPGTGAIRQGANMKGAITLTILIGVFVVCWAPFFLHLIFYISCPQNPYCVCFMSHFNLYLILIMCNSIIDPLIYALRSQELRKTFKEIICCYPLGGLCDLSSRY
T5 sequence (P25103 whole entry): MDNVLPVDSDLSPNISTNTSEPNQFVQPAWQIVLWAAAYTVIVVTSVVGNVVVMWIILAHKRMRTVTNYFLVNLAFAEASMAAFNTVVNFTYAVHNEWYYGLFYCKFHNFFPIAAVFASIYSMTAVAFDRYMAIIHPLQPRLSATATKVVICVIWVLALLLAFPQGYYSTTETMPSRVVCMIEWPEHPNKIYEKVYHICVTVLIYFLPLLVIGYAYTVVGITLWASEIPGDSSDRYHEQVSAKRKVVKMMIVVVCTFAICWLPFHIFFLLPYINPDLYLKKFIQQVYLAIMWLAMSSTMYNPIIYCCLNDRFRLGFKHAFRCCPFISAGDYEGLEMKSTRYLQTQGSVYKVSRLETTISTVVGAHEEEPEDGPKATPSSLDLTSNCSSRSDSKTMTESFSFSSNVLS
T10 sequence (P41143 whole entry): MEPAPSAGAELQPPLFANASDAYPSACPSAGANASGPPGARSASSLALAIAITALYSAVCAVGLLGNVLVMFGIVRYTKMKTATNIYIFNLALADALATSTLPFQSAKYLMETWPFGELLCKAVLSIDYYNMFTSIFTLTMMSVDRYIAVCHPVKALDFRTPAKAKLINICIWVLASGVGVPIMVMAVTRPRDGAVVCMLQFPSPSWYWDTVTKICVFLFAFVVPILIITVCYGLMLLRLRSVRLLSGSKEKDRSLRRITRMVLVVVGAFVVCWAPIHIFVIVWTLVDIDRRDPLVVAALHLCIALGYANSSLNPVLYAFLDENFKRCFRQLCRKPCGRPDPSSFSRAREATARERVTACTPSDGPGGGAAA
T3 sequence (Q99705 whole entry): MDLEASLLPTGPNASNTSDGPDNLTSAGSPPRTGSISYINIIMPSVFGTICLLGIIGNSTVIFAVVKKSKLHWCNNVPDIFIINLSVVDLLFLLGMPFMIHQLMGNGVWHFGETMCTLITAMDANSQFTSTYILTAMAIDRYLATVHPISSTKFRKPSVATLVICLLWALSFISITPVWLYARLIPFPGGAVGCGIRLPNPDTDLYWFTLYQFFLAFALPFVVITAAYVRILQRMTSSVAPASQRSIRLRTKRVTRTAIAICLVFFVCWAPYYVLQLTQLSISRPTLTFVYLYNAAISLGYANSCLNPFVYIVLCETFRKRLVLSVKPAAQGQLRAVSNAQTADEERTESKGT
T6 sequence (P33032 whole entry): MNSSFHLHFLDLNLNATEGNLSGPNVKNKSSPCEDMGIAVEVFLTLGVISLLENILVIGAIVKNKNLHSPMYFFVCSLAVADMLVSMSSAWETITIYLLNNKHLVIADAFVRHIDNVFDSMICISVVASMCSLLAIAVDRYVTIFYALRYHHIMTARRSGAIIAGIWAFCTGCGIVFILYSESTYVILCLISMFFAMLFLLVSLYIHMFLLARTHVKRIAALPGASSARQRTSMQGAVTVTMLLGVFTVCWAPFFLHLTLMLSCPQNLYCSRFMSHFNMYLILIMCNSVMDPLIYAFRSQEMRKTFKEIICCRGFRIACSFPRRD
T4 sequence (P35372 whole entry): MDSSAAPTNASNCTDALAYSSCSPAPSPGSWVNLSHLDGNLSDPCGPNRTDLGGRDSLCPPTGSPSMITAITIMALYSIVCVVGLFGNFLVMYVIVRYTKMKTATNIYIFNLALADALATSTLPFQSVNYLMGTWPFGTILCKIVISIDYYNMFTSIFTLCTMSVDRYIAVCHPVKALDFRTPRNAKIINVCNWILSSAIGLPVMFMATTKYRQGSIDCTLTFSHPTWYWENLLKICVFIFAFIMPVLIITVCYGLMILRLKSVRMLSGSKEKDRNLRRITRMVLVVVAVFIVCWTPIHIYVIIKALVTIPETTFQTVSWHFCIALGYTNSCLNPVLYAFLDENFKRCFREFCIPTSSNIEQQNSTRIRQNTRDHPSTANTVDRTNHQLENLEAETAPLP

Structure (SMILES) | A3: inhibition of radioligand binding, human melanocortin (MC3) (Human Melanocortin (MC3); 10 µM) | A4: inhibition of radioligand binding, human melanocortin (MC4) (Human Melanocortin (MC4); 10 µM) | A6: inhibition of radioligand binding, human melanin-concentrating hormone (MCH1) ([1]; 10 µM) | A7: inhibition of radioligand binding, human μ-opioid (MOP) (Human μ-opioid (MOP)) | A8: inhibition of radioligand binding, human neurokinin (NK1) (Human neurokinin (NK1)) | A5: inhibition of radioligand binding, human melanocortin (MC5) (Human melanocortin (MC5); 10 µM) | A10: inhibition of radioligand binding, human opioid (ORL1) (Human opioid (ORL1)) | A2: inhibition of radioligand binding, human κ-opioid (KOP) (Human κ-Opioid (KOP)) | A11: inhibition of radioligand binding, mouse urotensin (mUR2) (Mouse urotensin (mUR2)) | A1: inhibition of radioligand binding, human δ-opioid (DOP) (Human δ-opioid (DOP)) | A9: inhibition of radioligand binding, human neuropeptide Y (NPY-Y1) [2] | A3: inhibition of radioligand binding, human melanocortin (MC3) (Human Melanocortin (MC3)) | A4: inhibition of radioligand binding, human melanocortin (MC4) (Human Melanocortin (MC4)) | A6: inhibition of radioligand binding, human melanin-concentrating hormone (MCH1) [1] | A5: inhibition of radioligand binding, human melanocortin (MC5) (Human melanocortin (MC5)) | A10: inhibition of radioligand binding, human opioid (ORL1) (Human opioid (ORL1); 10 µM) | A7: inhibition of radioligand binding, human μ-opioid (MOP) (Human μ-opioid (MOP); 10 µM) | A9: inhibition of radioligand binding, human neuropeptide Y (NPY-Y1) ([2]; 10 µM)
N=C(N)NCC(=O)N[C@H]1C(OCc2ccc(Cl)cc2)O[C@H](COCc2ccccc2)[C@@H](O)[C@@H]1OCc1ccc(-c2ccccc2)cc1 (stereo partly shown) [compound 518] | − (“−” indicates less than 50% inhibition at 10 μM) | − (“−” indicates less than 50% inhibition at 10 μM) | − (“−” indicates less than 50% inhibition at 10 μM) | − (“−” indicates less than 50% inhibition at 10 μM) | + (“+” indicates greater than 50% inhibition at 10 μM) | − (“−” indicates less than 50% inhibition at 10 μM) | − (“−” indicates less than 50% inhibition at 10 μM) | − (“−” indicates less than 50% inhibition at 10 μM) | − (“−” indicates less than 50% inhibition at 10 μM) | − (“−” indicates less than 50% inhibition at 10 μM) | − (“−” indicates less than 50% inhibition at 10 μM) | – | – | – | – | – | – | –
N=C(N)NCC(=O)N[C@H]1C(OCc2ccc(Cl)cc2)O[C@H](COCc2ccccc2)[C@@H](O)[C@@H]1OCc1ccc(-c2ccccc2)cc1 (stereo partly shown) [compound 519] | + (“+” indicates greater than 50% inhibition at 10 μM) | + (“+” indicates greater than 50% inhibition at 10 μM) | + (“+” indicates greater than 50% inhibition at 10 μM) | − (“−” indicates less than 50% inhibition at 10 μM) | + (“+” indicates greater than 50% inhibition at 10 μM) | + (“+” indicates greater than 50% inhibition at 10 μM) | − (“−” indicates less than 50% inhibition at 10 μM) | − (“−” indicates less than 50% inhibition at 10 μM) | − (“−” indicates less than 50% inhibition at 10 μM) | − (“−” indicates less than 50% inhibition at 10 μM) | − (“−” indicates less than 50% inhibition at 10 μM) | – | – | – | – | – | – | –
N=C(N)NCC(=O)N[C@H]1C(OCc2ccc(Cl)cc2)O[C@H](COCc2ccc(Cl)cc2)[C@@H](O)[C@@H]1OCc1ccc(-c2ccccc2)cc1 (stereo partly shown) [compound 520] | – | – | – | − (“−” indicates less than 50% inhibition at 10 μM) | + (“+” indicates greater than 50% inhibition at 10 μM) | – | – | − (“−” indicates less than 50% inhibition at 10 μM) | − (“−” indicates less than 50% inhibition at 10 μM) | − (“−” indicates less than 50% inhibition at 10 μM) | − (“−” indicates less than 50% inhibition at 10 μM) | + (“+” indicates greater than 50% inhibition at 10 μM) | + (“+” indicates greater than 50% inhibition at 10 μM) | + (“+” indicates greater than 50% inhibition at 10 μM) | + (“+” indicates greater than 50% inhibition at 10 μM) | − (“−” indicates less than 50% inhibition at 10 μM) | – | –
N=C(N)NCC(=O)N[C@H]1C(OCc2ccc(Cl)cc2)O[C@H](COCc2ccc(Cl)cc2)[C@@H](O)[C@@H]1OCc1ccc(-c2ccccc2)cc1 (stereo partly shown) [compound 521] | – | – | – | − (“−” indicates less than 50% inhibition at 10 μM) | + (“+” indicates greater than 50% inhibition at 10 μM) | – | – | − (“−” indicates less than 50% inhibition at 10 μM) | − (“−” indicates less than 50% inhibition at 10 μM) | − (“−” indicates less than 50% inhibition at 10 μM) | − (“−” indicates less than 50% inhibition at 10 μM) | + (“+” indicates greater than 50% inhibition at 10 μM) | + (“+” indicates greater than 50% inhibition at 10 μM) | + (“+” indicates greater than 50% inhibition at 10 μM) | + (“+” indicates greater than 50% inhibition at 10 μM) | + (“+” indicates greater than 50% inhibition at 10 μM) | – | –
N=C(N)NCCC(=O)N[C@H]1C(OCc2ccc(Cl)cc2)O[C@H](COCc2ccc3ccccc3c2)[C@@H](O)[C@@H]1OCc1ccc(Cl)cc1 (stereo partly shown) [compound 522] | – | – | – | – | + (“+” indicates greater than 50% inhibition at 10 μM) | – | + (“+” indicates greater than 50% inhibition at 10 μM) | + (“+” indicates greater than 50% inhibition at 10 μM) | − (“−” indicates less than 50% inhibition at 10 μM) | − (“−” indicates less than 50% inhibition at 10 μM) | – | + (“+” indicates greater than 50% inhibition at 10 μM) | + (“+” indicates greater than 50% inhibition at 10 μM) | + (“+” indicates greater than 50% inhibition at 10 μM) | + (“+” indicates greater than 50% inhibition at 10 μM) | – | − (“−” indicates less than 50% inhibition at 10 μM) | + (“+” indicates greater than 50% inhibition at 10 μM)
